Data as given in patent US20250197837A1, “SERINE PROTEASE FOR SELECTIVELY DEGRADING MUCINS AND USE THEREOF” (priority 2022, published 2025).

Legend:
[1] = system: miscellaneous protein derived from the patient's abdominal cavity; assay: Example 4: specificity, SDS-PAGE of miscellaneous proteins in homogenized patient mucins; assay type: biochemical, human; conditions: 2-10 ug protease, 100 μL homogenized mucins, 200 uL, 6 h
Description: Untreated mucins derived from clinical patients were briefly cleared to remove cellular tissue. 0.20 g of the above-mentioned mucins was accurately weighed and placed in 1 mL of PBS solution, 3-4 magnetic beads with a diameter of 1 mm were added, and then a resulting mixture was frozen and shaken at −30° C. for homogenization, so as to destroy the gel-like morphology of mucins, and release the miscellaneous protein from patients with mixed gel-like mucins. 100 μL of the homogenized mucins solution was added with 2-10 ug of protease (bromelain or serine protease EatA), respectively, and the reaction was performed in a 200 uL reaction system. After 6 h of reaction, samples were respectively taken for SDS-PAGE detection, and the total protein after fragmentation, which was the patient-derived miscellaneous protein in the abdominal cavity/abdominal mucins of the patient, was analyzed.

[2] = system: human patient-derived gel-like mucins; assay: Example 5: in vivo degradation of gel-like mucins embedded in mouse abdominal cavity; set-up: species or system C57 male mice; conditions: 80 ug injected 24 h after embedding 0.30 g mucins, sacrificed after 48 h
Description: The experiment included twenty C57 male mice aged 6-8 weeks. Five groups were set up in the experiment, including an experimental group (mucus+EatA, 5 mice), a control group (mucus+PBS, 5 mice), a bromelain group (mucus+bromelain, 5 mice), a negative sham operation group (minimal invasive open operation performed without adding mucins and enzyme, 3 mice), and a reference group (minimal invasive open operation performed with adding EatA protease, 2 mice). […] After 48 h, the mice were sacrificed, laparotomy was performed (results of abdominal examination after laparotomy were shown in FIG. 9) and the whole amount of gel-like mucins in the mice were removed, weighed using the method described in Example 2, counted and compared with the final amount of gel-like mucins remaining in three groups (experimental group (mucus+EatA), control group without enzyme (mucus+PBS) and bromelain group (mucus+bromelain)) to which gel-like mucins was added as a substrate, and results were shown in FIG. 8.

gel-like mucins [3] = assay: Example 2: mass loss of gel-like mucins, EatA versus bromelain; assay type: biochemical, human; conditions: 0.10 g mucins, 500 uL PBS, 37° C., 6 h
Text: (§1) Since mucins of different origins and mucins associated with the mucus-related disease have different expression patterns and post-translational modifications, different mucins of clinical pathological origin and mixtures thereof are used in the present application. Preferably, mucins of clinical peritoneal pseudomyxoma origin are used. In the present application, firstly, gel-like mucins from the abdominal cavity of patients with clinical peritoneal pseudomyxoma are collected, after protein precipitation with 30% to 100% ammonium sulfate, cells and tissue fragments, adipose tissue that possibly doped in the collection process of mucins are selected and removed, and then dialyzed and filtered through a 100 KDa dialysis bag. Through the use of sulfate detection test paper, the sulfate concentration in the dialysate and the inner side of the dialysis bag is confirmed. When the sulfate concentration is less than 200 mg/L, the dialysis is terminated and gel-like mucins can be seen. This sample is collected and used as the substrate for in vitro tests to examine the degradation ability of serine protease EatA on mucins. Some examples used mucins removed from the abdominal cavity of clinical patients without purification. […]

[4] = system: mucins after mucus formation; conditions: background statement; cited from earlier work
[5] = biological target: gel-like mucins from the abdominal cavity of patients with clinical peritoneal pseudomyxoma
[6] = biological target: mucus from mucinous appendiceal adenocarcinoma (clinical source)
[7] = biological target: mucus from mucinous ovarian cancer (clinical source)
[8] = system: gelatin, lactoferrin and CD43, BSA and BSM; conditions: previous studies; cited from earlier work
[9] = system: gel-like mucins from the abdominal cavity of patients with clinical peritoneal pseudomyxoma; assay: Example 1: degradation of gel-like mucins by EatA, visual/pipette observation; assay type: biochemical, human; conditions: about 80 μg enzyme, 0.30 g mucins, 500 ul, 37° C., 3 h
Text: as §1

gel-like mucins [10] = assay: Example 3: temperature, pH and time dependence of mucin degradation; assay type: biochemical, human
Text: Since mucins of different origins and mucins associated with the mucus-related disease have different expression patterns and post-translational modifications, different mucins of clinical pathological origin and mixtures thereof are used in the present application. Preferably, mucins of clinical peritoneal pseudomyxoma origin are used. In the present application, firstly, gel-like mucins from the abdominal cavity of patients with clinical peritoneal pseudomyxoma are collected, after protein precipitation with 30% to 100% ammonium sulfate, cells and tissue fragments, adipose tissue that possibly doped in the collection process of mucins are selected and removed, and then dialyzed and filtered through a 100 KDa dialysis bag. Through the use of sulfate detection test paper, the sulfate concentration in the dialysate and the inner side of the dialysis bag is confirmed. When the sulfate concentration is less than 200 mg/L, the dialysis is terminated and gel-like mucins can be seen. This sample is collected and used as the substrate for in vitro tests to examine the degradation ability of serine protease EatA on mucins. Some examples used mucins removed from the abdominal cavity of clinical patients without purification.
During the experiment, 0.10 g of gel-like mucins was accurately weighed for each single reaction, 20 μg of aminoprotease EatA was added, the reaction was performed in 500 uL of solution system, and the weighing method for the remaining gel-like mucins was the same as that in Example 2. The control group was performed under the same conditions except that the serine protease EatA was not added, and three reactions were set in each group as statistical replicates. Due to the hydrating nature of gel-like mucins, the gel-like mucins absorbed water and swelled when in solution, resulting in a certain weight increase in the control group when finally weighed.
Among them, the experiment on temperature gradient was conducted in normal saline with pH=7.1, and results were shown in FIG. 4; in the pH experiment, the reaction system used was a solution system with different pH values based on 0.9% normal saline, and the reaction temperature was 37° C., and results are shown in FIG. 5; the reaction time for both the above-mentioned experiments was 6 h.
In the experiment regarding the degradation time, based on the temperature curve and pH curve, the experiment was carried out in PBS buffer with pH=7.2-7.4 at 37° C.

[11] = Example 5: tolerability in mice after intraperitoneal injection; assay type: in vivo, C57 male mice; conditions: mice injected with enzyme
[12] = system: mucinous appendiceal adenocarcinoma (MAA) mucus; assay: Example 6: viscosity and appearance of mucinous appendiceal adenocarcinoma mucus after incubation; assay type: biochemical, human; conditions: 50 μg enzyme, 20 h
Description: (§2) This example carried out a degradation experiment on mucus from mucinous ovarian cancer and mucinous appendiceal adenocarcinoma using the serine protease EatA. 0.50 mL of the above-mentioned two new types of mucinous carcinoma mucus from clinical sources were weighed directly into test tubes, 50 μg of EatA serine protease dissolved in 0.25 mL of PBS buffer was added and then incubated in a total 750 uL reaction system at 37° C., 600 rpm for 20 h. For each type of mucinous carcinoma mucus sample, a control group was set up with only the addition of an equal volume of PBS, for a total of four experiments, each set up with three replicates. The viscosity of the incubated experimental samples was measured under an Anton Paar rheometer, probe model pp25, sample spacing 0.45 mm. After each sample was subjected to pre-shearing at a shearing frequency of 5 rad/s for 20 s, a total of 36 sample point data was obtained for each group of experiments by reading a total of 12 data at a shearing frequency of 10 rad/s every 5 s period for 60 s.

[13] = system: mucinous ovarian cancer (MOC) mucus; assay: Example 6: viscosity of mucinous ovarian cancer mucus after incubation (rheometer); assay type: biochemical, human; conditions: 50 μg enzyme, 0.50 mL mucus, 750 uL, 37° C., 600 rpm, 20 h; control about 2000 mPa s
Description: as §2

[14] = system: mucus (sputum), mucous colon cancer and the like of patients with chronic obstructive pulmonary pneumonia; assay: Applicant's related studies: degradation of COPD sputum and mucous colon cancer mucus; assay type: biochemical, human; conditions: relevant study results of the applicant

bromelain [reference compound]
degradation of patient-derived miscellaneous proteins (SDS-PAGE) [1]: the miscellaneous protein showed degradation
amount of gel-like mucins remaining [2]: more than 0.30 g
mass loss of gel-like mucins (in words) (gel-like mucins [3]; increasing enzyme concentration): negative

elastase
mucin degradation after mucus formation [4]: inefficient

pancreatin
mucin degradation after mucus formation [4]: inefficient

serine protease EatA (serine protease EatA-EatAp with only the passenger domain) (enzyme)
mass loss of gel-like mucins [5]: 90.3%
viscosity of mucus (rheometer) [6]: 7 mPa s
viscosity of mucus (rheometer) [7]: 670 mPa s

serine protease EatA: autotransporter serine protease from enterotoxigenic Escherichia coli H10407; passenger domain SEQ ID NO 2, full length SEQ ID NO 1
degradation of common human glycoproteins and non-human proteins [8]: did not degrade
degradation of gel-like mucins (observation) [9]: obvious degradation of gel-like mucins
pH of maximum degradation efficiency (gel-like mucins [10]; 20 μg enzyme, 0.10 g mucins, 0.9% normal saline based, 37° C., 6 h): ~8
mass loss of gel-like mucins (gel-like mucins [10]; 20 μg enzyme, 0.10 g mucins, PBS pH=7.2-7.4, 37° C., 10.5 h): 80%
temperature of maximum enzyme activity (gel-like mucins [10]; 20 μg enzyme, 0.10 g mucins, normal saline pH=7.1, 6 h): 34-37 °C
optimal working environment: pH (gel-like mucins [10]; degradation of gel-like mucins): 7-8
optimal working environment: reaction temperature (gel-like mucins [10]; degradation of gel-like mucins): 34-37 °C
degradation of patient-derived miscellaneous proteins (SDS-PAGE) [1]: did not degrade these proteins
degradation efficiency of gel-like mucins in vivo ([2]; based on initial 0.30 g): 78%
survival from the beginning of the experiment [11]: more than 100 days
adverse reactions, behavior and body weight ([11]; compared with non-injected group): without adverse reactions
mass loss of gel-like mucins (gel-like mucins [3]; 40 μg enzyme, based on initial mass 0.1 g): 90.33%
viscosity of mucus after incubation ([12]; 0.50 mL mucus, 750 uL, 37° C., 600 rpm, control about 1200 mPa s): about 7 mPa s
appearance of mucus sample solution after incubation ([12]; after standing): becomes uniform
viscosity of mucus after incubation [13]: about 670 mPa s
degradation effect on mucus [14]: certain degradation effect
